We go through eight molecules from ChEMBL document CHEMBL3045929, “Design, synthesis, and evaluation of novel indomethacinantioxidant codrugs as gastrosparing NSAIDs” (2012).

Each structure is given as a SMILES string.

Assay [1] concerns Rattus norvegicus. Description: Antiulcerogenic activity in fasted Rattus norvegicus Sprague-Dawley (rat) stomach assessed as ulcer index at 67.1 mg/kg, po after 8 hr (reference value: 0.23 +/- 0.09). In kind it is functional.
The test system of assay [2] is Rattus norvegicus. The assay is described as follows: Anti-inflammatory activity in Rattus norvegicus Sprague-Dawley (rat) assessed as increase in carrageenan-induced paw edema at 16 mg/kg, po measured at 2 hr by plethysmometer (reference value: 64.73 +/- 0.72 %). It is filed as functional.
The test system of assay [3] is Rattus norvegicus. Description: Anti-inflammatory activity in Rattus norvegicus Sprague-Dawley (rat) assessed as increase in carrageenan-induced paw edema at 16 mg/kg, po measured at 4 hr by plethysmometer (reference value: 81.58 +/- 0.63 %). In kind it is functional. (The carrageenan paw model is a standard test of acute inflammation.)
Assay [4] deals with Mus musculus. The assay is described as follows: Analgesic activity in Mus musculus (mouse) assessed as inhibition of acetic acid-induced abdominal writhing at 13.96 mg/kg, po measured for 20 min relative to vehicle-treated control. The settings on record: Abdomen. (In general: An intraperitoneal irritant provokes the stretching counted in writhing tests.)
The test system of assay [5] is Rattus norvegicus. The assay is described as follows: Anti-inflammatory activity in Rattus norvegicus Sprague-Dawley (rat) assessed as increase in carrageenan-induced paw edema at 16.8 mg/kg, po measured at 2 hr by plethysmometer (reference value: 64.73 +/- 0.72 %). In kind it is functional.
Assay [6] concerns Mus musculus. The assay is described as follows: Analgesic activity in Mus musculus (mouse) assessed as inhibition of acetic acid-induced abdominal writhing at 13.35 mg/kg, po measured for 20 min relative to vehicle-treated control. The conditions noted are these: Abdomen.
Assay [7] concerns Rattus norvegicus. The assay is described as follows: Anti-inflammatory activity in Rattus norvegicus Sprague-Dawley (rat) assessed as increase in carrageenan-induced paw edema at 16.8 mg/kg, po measured at 4 hr by plethysmometer (reference value: 81.58 +/- 0.63 %). In kind it is functional.
Assay [8] deals with Rattus norvegicus. Description: Antiulcerogenic activity in fasted Rattus norvegicus Sprague-Dawley (rat) stomach assessed as ulcer index at 64.1 mg/kg, po after 8 hr (reference value: 0.23 +/- 0.09). In kind it is functional.
In assay [9] the test system is Mus musculus. The assay is described as follows: Analgesic activity in Mus musculus (mouse) assessed as inhibition of acetic acid-induced abdominal writhing at 13.9 mg/kg, po measured for 20 min relative to vehicle-treated control. The conditions noted are these: Abdomen.
Assay [10] deals with Rattus norvegicus. The assay is described as follows: Anti-inflammatory activity in Rattus norvegicus Sprague-Dawley (rat) assessed as increase in carrageenan-induced paw edema at 16.6 mg/kg, po measured at 4 hr by plethysmometer (reference value: 81.58 +/- 0.63 %). It is filed as functional.
Assay [11] has as its system Rattus norvegicus. Description: Anti-inflammatory activity in Rattus norvegicus Sprague-Dawley (rat) assessed as increase in carrageenan-induced paw edema at 16.6 mg/kg, po measured at 2 hr by plethysmometer (reference value: 64.73 +/- 0.72 %). In kind it is functional.
Assay [12] concerns Rattus norvegicus. The assay is described as follows: Antiulcerogenic activity in fasted Rattus norvegicus Sprague-Dawley (rat) stomach assessed as ulcer index at 66.5 mg/kg, po after 8 hr (reference value: 0.23 +/- 0.09). In kind it is functional.
Assay [13] concerns Rattus norvegicus. The assay is described as follows: Anti-inflammatory activity in Rattus norvegicus Sprague-Dawley (rat) assessed as increase in carrageenan-induced paw edema at 15.6 mg/kg, po measured at 2 hr by plethysmometer (reference value: 64.73 +/- 0.72 %). It is filed as functional.
Assay [14] has as its system Rattus norvegicus. The assay is described as follows: Antiulcerogenic activity in fasted Rattus norvegicus Sprague-Dawley (rat) stomach assessed as ulcer index at 62.2 mg/kg, po after 8 hr (reference value: 0.23 +/- 0.09). It is filed as functional.
Assay [15] deals with Rattus norvegicus. The assay is described as follows: Anti-inflammatory activity in Rattus norvegicus Sprague-Dawley (rat) assessed as increase in carrageenan-induced paw edema at 15.6 mg/kg, po measured at 4 hr by plethysmometer (reference value: 81.58 +/- 0.63 %). It is filed as functional.
Assay [16] has as its system Mus musculus. The assay is described as follows: Analgesic activity in Mus musculus (mouse) assessed as inhibition of acetic acid-induced abdominal writhing at 12.9 mg/kg, po measured for 20 min relative to vehicle-treated control. The conditions noted are these: Abdomen.
Assay [17] has as its system Rattus norvegicus. The assay is described as follows: Anti-inflammatory activity in Rattus norvegicus Sprague-Dawley (rat) assessed as increase in carrageenan-induced paw edema at 16.9 mg/kg, po measured at 4 hr by plethysmometer (reference value: 81.58 +/- 0.63 %). In kind it is functional.
Assay [18] has as its system Rattus norvegicus. The assay is described as follows: Anti-inflammatory activity in Rattus norvegicus Sprague-Dawley (rat) assessed as increase in carrageenan-induced paw edema at 16.9 mg/kg, po measured at 2 hr by plethysmometer (reference value: 64.73 +/- 0.72 %). It is filed as functional.
The subject of assay [19] is Mus musculus. Description: Analgesic activity in Mus musculus (mouse) assessed as inhibition of acetic acid-induced abdominal writhing at 14.08 mg/kg, po measured for 20 min relative to vehicle-treated control. The conditions noted are these: Abdomen.
The test system of assay [20] is Rattus norvegicus. The assay is described as follows: Antiulcerogenic activity in fasted Rattus norvegicus Sprague-Dawley (rat) stomach assessed as ulcer index at 67.6 mg/kg, po after 8 hr (reference value: 0.23 +/- 0.09). It is filed as functional.
The subject of assay [21] is Rattus norvegicus. The assay is described as follows: Antiulcerogenic activity in fasted Rattus norvegicus Sprague-Dawley (rat) stomach assessed as ulcer index at 65.7 mg/kg, po after 8 hr (reference value: 0.23 +/- 0.09). It is filed as functional.
The subject of assay [22] is Mus musculus. The assay is described as follows: Analgesic activity in Mus musculus (mouse) assessed as inhibition of acetic acid-induced abdominal writhing at 13.69 mg/kg, po measured for 20 min relative to vehicle-treated control. The settings on record: Abdomen.
The test system of assay [23] is Rattus norvegicus. Description: Anti-inflammatory activity in Rattus norvegicus Sprague-Dawley (rat) assessed as increase in carrageenan-induced paw edema at 16.4 mg/kg, po measured at 2 hr by plethysmometer (reference value: 64.73 +/- 0.72 %). In kind it is functional.
Assay [24] concerns Rattus norvegicus. The assay is described as follows: Anti-inflammatory activity in Rattus norvegicus Sprague-Dawley (rat) assessed as increase in carrageenan-induced paw edema at 16.4 mg/kg, po measured at 4 hr by plethysmometer (reference value: 81.58 +/- 0.63 %). It is filed as functional.
Assay [25] has as its system Rattus norvegicus. The assay is described as follows: Anti-inflammatory activity in Rattus norvegicus Sprague-Dawley (rat) assessed as increase in carrageenan-induced paw edema at 16.5 mg/kg, po measured at 4 hr by plethysmometer (reference value: 81.58 +/- 0.63 %). It is filed as functional.
In assay [26] the test system is Rattus norvegicus. The assay is described as follows: Antiulcerogenic activity in fasted Rattus norvegicus Sprague-Dawley (rat) stomach assessed as ulcer index at 66 mg/kg, po after 8 hr (reference value: 0.23 +/- 0.09). In kind it is functional.
For assay [27], the system named is Mus musculus. Description: Analgesic activity in Mus musculus (mouse) assessed as inhibition of acetic acid-induced abdominal writhing at 13.75 mg/kg, po measured for 20 min relative to vehicle-treated control. The conditions noted are these: Abdomen.
The test system of assay [28] is Rattus norvegicus. Description: Anti-inflammatory activity in Rattus norvegicus Sprague-Dawley (rat) assessed as increase in carrageenan-induced paw edema at 16.5 mg/kg, po measured at 2 hr by plethysmometer (reference value: 64.73 +/- 0.72 %). It is filed as functional.
For assay [29], the system named is Rattus norvegicus. The assay is described as follows: Anti-inflammatory activity in Rattus norvegicus Sprague-Dawley (rat) assessed as increase in carrageenan-induced paw edema at 12 mg/kg, po measured at 4 hr by plethysmometer (reference value: 81.58 +/- 0.63 %). It is filed as functional.
Assay [30] relates to Mus musculus. Description: Analgesic activity in Mus musculus (mouse) assessed as inhibition of acetic acid-induced abdominal writhing at 10 mg/kg, po measured for 20 min relative to vehicle-treated control. The settings on record: Abdomen.
Assay [31] concerns Rattus norvegicus. The assay is described as follows: Antiulcerogenic activity in fasted Rattus norvegicus Sprague-Dawley (rat) stomach assessed as ulcer index at 48 mg/kg, po after 8 hr (reference value: 0.23 +/- 0.09). It is filed as functional.
Assay [32] relates to Rattus norvegicus. The assay is described as follows: Anti-inflammatory activity in Rattus norvegicus Sprague-Dawley (rat) assessed as increase in carrageenan-induced paw edema at 12 mg/kg, po measured at 2 hr by plethysmometer (reference value: 64.73 +/- 0.72 %). It is filed as functional.

One may read the inhibition in vivo as the share of the control response that was lost under treatment. Turning to `COc1ccc2c(c1)c(CC(=O)Oc1ccc3c(c1)OCO3)c(C)n2C(=O)c1ccc(Cl)cc1`, in the assay on Rattus norvegicus [1], the UI stood at 0.79. For the same molecule, the Activity in the assay on Rattus norvegicus [2] amounted to 43.17%; in the assay with Rattus norvegicus [3] it was 44.52%. The inhibition in vivo at 13.96 mg/kg in the assay on Mus musculus [4] was determined as 86%.
Take `COc1ccc2c(c1)c(CC(=O)Oc1ccc3ccc(=O)oc3c1)c(C)n2C(=O)c1ccc(Cl)cc1`: the Activity in the assay on Rattus norvegicus [5] was determined as 48.06%; with Rattus norvegicus [7], 50.27%. Moreover, the inhibition in vivo at 13.35 mg/kg in the assay on Mus musculus [6] was found to be 75.2%. In addition, in the assay on Rattus norvegicus [8], the UI is reported as 1.28.
In the case of `COc1ccc2c(c1)c(CC(=O)O[C@@H]1C[C@H](C)CC[C@H]1C(C)C)c(C)n2C(=O)c1ccc(Cl)cc1`, the inhibition in vivo at 13.9 mg/kg in the assay on Mus musculus [9] turned out to be 73.9%. In addition, the Activity in the assay with Rattus norvegicus [10] is given as 55.54%; in the assay with Rattus norvegicus [11], 52.01%. Also, the UI in the assay on Rattus norvegicus [12] worked out at 1.41.
For the molecule `COc1ccc2c(c1)c(CC(=O)Oc1ccccc1OC)c(C)n2C(=O)c1ccc(Cl)cc1`, the Activity is given as 46.89% in the assay on Rattus norvegicus [13] and 48.21% in the assay with Rattus norvegicus [15]. Also, the UI in the assay on Rattus norvegicus [14] came to 1.15. Further, the inhibition in vivo at 12.9 mg/kg with Mus musculus [16] was 78.7%.
On to `C=CCc1ccc(OC(=O)Cc2c(C)n(C(=O)c3ccc(Cl)cc3)c3ccc(OC)cc23)c(OC)c1`, for which the Activity in the assay with Rattus norvegicus [17] amounted to 45.39%; in the assay with Rattus norvegicus [18], 44.33%. For the same molecule, in the assay with Mus musculus [19], the inhibition in vivo at 14.08 mg/kg came out at 84.8%. Further, the UI with Rattus norvegicus [20] came out at 0.93.
For `COc1ccc2c(c1)c(CC(=O)Oc1cc(C)ccc1C(C)C)c(C)n2C(=O)c1ccc(Cl)cc1`, the UI with Rattus norvegicus [21] stood at 1.37. Further, in the assay on Mus musculus [22], the inhibition in vivo at 13.69 mg/kg amounted to 73.2%. Also, the Activity was determined as 50.25% with Rattus norvegicus [23] and 54.61% in the assay on Rattus norvegicus [24].
`COc1ccc2c(c1)c(CC(=O)Oc1ccc(C=O)cc1OC)c(C)n2C(=O)c1ccc(Cl)cc1`: the Activity in the assay with Rattus norvegicus [25] was 49.87%; with Rattus norvegicus [28] it was 47.13%. The UI in the assay with Rattus norvegicus [26] amounted to 1.23. Also, the inhibition in vivo at 13.75 mg/kg in the assay on Mus musculus [27] was 81.5%.
Turning to `COc1ccc2c(c1)c(CC(=O)O)c(C)n2C(=O)c1ccc(Cl)cc1` [INDOMETHACIN], the Activity came out at 57.39% in the assay with Rattus norvegicus [29] and 48.35% with Rattus norvegicus [32]. For the same molecule, in the assay on Mus musculus [30], the inhibition in vivo at 10 mg/kg was 74.9%. The UI in the assay on Rattus norvegicus [31] is recorded as 5.54.
